This note sets out measurements from ChEMBL document CHEMBL1144769 (J Med Chem, 2008).

Activity calls are given as the source filed them. The rule behind the calls is not given here.

Series [1] addresses T1, Prostaglandin G/H synthase 1 (Homo sapiens, UniProt P23219). Nature of the series: Inhibition of COX1.
Series [2] concerns the target T2, Prostaglandin G/H synthase 2 (Homo sapiens, UniProt P35354).
T2 sequence (P35354 whole entry): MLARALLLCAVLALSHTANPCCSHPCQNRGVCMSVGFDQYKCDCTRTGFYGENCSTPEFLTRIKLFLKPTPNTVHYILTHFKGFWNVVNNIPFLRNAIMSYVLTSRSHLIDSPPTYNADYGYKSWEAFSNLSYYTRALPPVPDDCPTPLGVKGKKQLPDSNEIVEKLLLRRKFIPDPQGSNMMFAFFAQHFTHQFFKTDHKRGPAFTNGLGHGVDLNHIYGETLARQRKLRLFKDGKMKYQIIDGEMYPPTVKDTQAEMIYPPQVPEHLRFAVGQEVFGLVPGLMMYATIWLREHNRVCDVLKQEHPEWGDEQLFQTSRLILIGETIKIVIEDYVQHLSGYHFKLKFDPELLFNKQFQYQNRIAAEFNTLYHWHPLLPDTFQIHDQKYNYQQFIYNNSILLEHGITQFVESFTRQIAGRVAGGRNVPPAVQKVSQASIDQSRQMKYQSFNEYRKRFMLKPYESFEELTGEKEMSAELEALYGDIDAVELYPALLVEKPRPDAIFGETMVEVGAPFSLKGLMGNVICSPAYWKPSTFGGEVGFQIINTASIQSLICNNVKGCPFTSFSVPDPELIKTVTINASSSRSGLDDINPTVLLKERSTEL
Kind of series: Inhibition of COX2.

Series [3] concerns the target T1, Prostaglandin G/H synthase 1. Nature of the series: Inhibition of COX1 at 100 uM.
Series [4] relates to Rattus norvegicus. Nature of the series: Induction of gastric ulcer formation in Sprague-Dawley rat at 30 mg/kg, po after 5 hrs. Also on record: dose 30 mg/kg, route oral. As to conditions: in vivo. The class given is organism-based, Stomach.
Series [5] concerns Mus musculus. Nature of the series: Analgesic activity in ICR mouse assessed as reduction in number of acetic acid-induced writhing at 10 mg/kg, po after 10 mins. In kind it is functional, organism-based. Also on record: dose 10 mg/kg. (In general: An intraperitoneal irritant provokes the stretching counted in writhing tests.)
The test system of series [6] is Mus musculus. Nature of the series: Acute toxicity in ICR mouse upto 300 mg/kg, po upto 14 days. In kind it is organism-based. Also on record: dose 300 mg/kg, route oral. The note with it: in vivo, 336 h.
In series [7] the test system is Rattus norvegicus. Kind of series: Induction of gastric ulcer formation in Sprague-Dawley rat at 30 mg/kg, po administered daily for 1 week. In kind it is organism-based, Stomach. Further details: dose 30 mg/kg, route oral. As to conditions: in vivo, 168 h.
Series [8] relates to Mus musculus. Kind of series: Analgesic activity in ICR mouse assessed as reduction in number of acetic acid-induced writhing at 30 mg/kg, po after 10 mins. The class given is functional, organism-based. Also on record: dose 30 mg/kg.
Series [9] relates to Rattus norvegicus. Nature of the series: Analgesic activity in Sprague-Dawley rat assessed as reduction in formalin-induced pain at 30 mg/kg, po. In kind it is functional, organism-based. Further details: dose 30 mg/kg.
A short description of series [10]: Cmax in Sprague-Dawley rat at 30 mg/kg, po. In kind it is ADME, organism-based. Also on record: dose 30 mg/kg, route oral. As to conditions: in vivo.
Series [11] deals with Rattus norvegicus. Nature of the series: Induction of gastric ulcer formation in Sprague-Dawley rat at 10 mg/kg, po after 5 hrs. The class given is organism-based, Stomach. Further details: dose 10 mg/kg, route oral. As to conditions: in vivo.

T1 sequence (P23219 whole entry): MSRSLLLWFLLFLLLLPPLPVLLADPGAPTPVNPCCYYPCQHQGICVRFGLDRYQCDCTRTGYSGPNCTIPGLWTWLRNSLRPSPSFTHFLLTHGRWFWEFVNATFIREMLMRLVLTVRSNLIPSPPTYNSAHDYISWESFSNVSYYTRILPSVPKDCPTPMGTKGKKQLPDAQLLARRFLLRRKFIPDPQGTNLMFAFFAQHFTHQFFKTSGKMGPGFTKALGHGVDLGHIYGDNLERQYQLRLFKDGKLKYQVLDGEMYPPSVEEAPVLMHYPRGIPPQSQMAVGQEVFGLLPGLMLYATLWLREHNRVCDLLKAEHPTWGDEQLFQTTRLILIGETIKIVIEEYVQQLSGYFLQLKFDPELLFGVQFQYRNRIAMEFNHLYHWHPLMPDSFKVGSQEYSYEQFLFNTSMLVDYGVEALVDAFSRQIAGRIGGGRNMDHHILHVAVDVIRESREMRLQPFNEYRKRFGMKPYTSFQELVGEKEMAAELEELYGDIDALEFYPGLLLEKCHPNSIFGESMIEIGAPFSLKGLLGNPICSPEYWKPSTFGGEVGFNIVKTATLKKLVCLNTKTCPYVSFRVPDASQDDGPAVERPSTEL

In general, IC50 refers to the concentration that inhibits the measured activity by half. Read a low IC50 as greater potency. `Nc1cccnc1NC(=O)c1cccc(C(F)(F)F)c1`: the IC50 in series [1] and in [2] was greater than 100 µM each time. As for `Nc1ccc(C(=O)Nc2ccc(C(F)(F)F)cn2)cc1`, the IC50 in [1] was 10 µM; in series [2], greater than 100 µM.

As usually defined, the inhibition is the share of the control response that was lost under treatment. Higher therefore signals a response far below the control. Take `Cc1cccc(NC(=O)c2ccccc2N)c1`: the inhibition in [3] stood at 67%.

Compound `Nc1ccc(NC(=O)c2ccccc2)cc1` yielded an inhibition in series [3] of 54%. With `Nc1ccc(NC(=O)c2ccc(C(F)(F)F)cc2)cc1`, the IC50 in [1] is 29 µM; in [2], greater than 100 µM. For the same compound, the inhibition in series [3] was 63%. Regarding `Nc1ccccc1NC(=O)c1ccccc1C(F)(F)F`, the IC50 in series [1] and in [2] was greater than 100 µM in each case.

For the compound `CCN(C(=O)c1ccccc1N)c1ccc(Cl)cc1`, the inhibition in series [3] turned out to be 23%. Regarding `Nc1ccc(C(=O)Nc2ccc(C(F)(F)F)cc2)cc1`, the IC50 in [1] is 30 µM; in series [2], greater than 100 µM. Moreover, the inhibition in series [3] turned out to be 71%. With `COc1ccc(-c2nc(C(=O)N3CCN(C)CC3)sc2-c2ccc(OC)cc2)cc1` [FR-122047], the IC50 in series [1] was determined as 0.028 µM; in series [2], 65 µM.

Consider `Nc1ccc(C(=O)Nc2ccccc2)cc1`, for which, in [3], the inhibition came to 40%. As for `Nc1ccc(C(=O)Nc2ccc(C(F)(F)F)cc2)nc1`, the half-maximal inhibitory concentration (IC50) in [1] and in series [2] was greater than 100 µM throughout.

For `Nc1ccc(NC(=O)c2cccc(C(F)(F)F)c2)nc1`, the IC50 was 12 µM in series [1] and greater than 100 µM in series [2]. Take `Nc1ccc(C(=O)Nc2ccccc2C(F)(F)F)cc1`: the IC50 in series [1] and in series [2] was greater than 100 µM each time. For the compound `CC(=O)Oc1ccccc1C(=O)O` [ASPIRIN], the result in the series with Rattus norvegicus [4] was Active. As to `Nc1cccc(C(=O)Nc2ccc(C(F)(F)F)cc2)c1`, the IC50 in series [1] was 19 µM; in [2], greater than 100 µM. The compound also came in with an inhibition in series [3] of 70%. In the case of `Nc1ccccc1C(=O)Nc1ccccc1`, the inhibition in series [3] came out at 64%. For `Nc1ccc(NC(=O)c2cccc(C(F)(F)F)c2)cc1`, the figures for the IC50 in series [1] and in series [2] were 62 µM and greater than 100 µM, respectively. With `Nc1ccnc(NC(=O)c2cccc(C(F)(F)F)c2)c1`, the IC50 in series [1] and in series [2] was greater than 100 µM throughout. `Cc1ccc(NC(=O)c2ccccc2N)cc1` came in with an inhibition in [3] of 57%. In the case of `Nc1cccc(NC(=O)c2ccc(C(F)(F)F)cc2)c1`, the values for the IC50 in [1] and in series [2] were 14 µM and greater than 100 µM, respectively. In series [3], this compound yielded an inhibition of 76%. `Nc1ccccc1NC(=O)c1cccc(C(F)(F)F)c1`: the IC50 in [1] was 72 µM; in series [2], greater than 100 µM. Consider `O=C(Nc1ccc(C(F)(F)F)cc1)c1ccccc1[N+](=O)[O-]`, for which the inhibition in [3] is 31%. For the compound `Nc1ccc(C(=O)Nc2cccc(C(F)(F)F)c2)cc1`, the IC50 in [1] and in series [2] was greater than 100 µM each time. With `Nc1ccnc(NC(=O)c2ccc(C(F)(F)F)cc2)c1`, the 50% inhibitory concentration (IC50) in series [1] and in series [2] was greater than 100 µM in each case. In turn, `Cc1ccc(NC(=O)c2ccc(N)cc2)cc1` displayed an inhibition in [3] of 56%. `Nc1ccccc1C(=O)Nc1ccccc1C(F)(F)F`: the IC50 in series [1] and in series [2] was greater than 100 µM throughout. Also, the inhibition in [3] was 32%. In series [3], `Nc1ccccc1C(=O)Nc1ccc(Cl)cc1` returned an inhibition of 52%. What is called Cmax is the peak of the concentration-time curve. Consider `Nc1ccc(NC(=O)c2ccc(C(F)(F)F)cc2)nc1`, for which the outcome in the series on Mus musculus [5], in the series on Mus musculus [8] and with Rattus norvegicus [9] was Active. For the same compound, the Activity result with Mus musculus [6] is on record as “Non-toxic”; with Rattus norvegicus [7] it was “Not Active”. Besides, the results for the IC50 in series [1] and in series [2] were 0.8 µM and 210 µM, respectively. The compound also had a Cmax in [10] of 12 µM. Regarding `Nc1cccc(NC(=O)c2ccccc2C(F)(F)F)c1`, the IC50 was 94 µM in [1] and greater than 100 µM in series [2]. Take `Cc1ccccc1NC(=O)c1ccccc1N`: the inhibition in [3] was 53%. As for `Nc1cccc(C(=O)Nc2cccc(C(F)(F)F)c2)c1`, the IC50 in series [1] and in series [2] was greater than 100 µM each time. Compound `CCN(C(=O)c1ccccc1N)c1ccccc1` returned an inhibition in series [3] of 5%. As to `Nc1ccc(NC(=O)c2ccccc2C(F)(F)F)cc1`, the half-inhibitory concentration (IC50) in series [1] and in series [2] was greater than 100 µM throughout.

For the compound `COc1ccc2c(c1)c(CC(=O)O)c(C)n2C(=O)c1ccc(Cl)cc1` [INDOMETHACIN], in the series on Mus musculus [5], the result was Active. Also, the outcome in the series on Rattus norvegicus [11] was Active.

As to `Nc1cccnc1NC(=O)c1ccc(C(F)(F)F)cc1`, the IC50 in series [1] and in series [2] was greater than 100 µM in each case.

On to `Nc1cccc(NC(=O)c2cccc(C(F)(F)F)c2)c1`, for which the IC50 was 7.2 µM in series [1] and greater than 100 µM in [2].

The compound `Nc1ccc(NC(=O)c2ccc(Cl)cc2)cc1` gave an inhibition in series [3] of 49%. Still for that read-out and setting: the result for `Cc1ccc(C(=O)Nc2ccc(N)cc2)cc1` reads 53%. For the compound `Cc1ccc(NC(=O)c2ccc(Cl)cc2)cc1`, the inhibition in series [3] was 23%. For `Nc1ccccc1NC(=O)c1ccc(C(F)(F)F)cc1`, the IC50 in series [1] is 88 µM; in series [2], greater than 100 µM. This compound also had an inhibition in series [3] of 53%. Consider `Nc1cccc(C(=O)Nc2ccccc2C(F)(F)F)c1`, for which the IC50 in series [1] and in series [2] was greater than 100 µM each time. Consider `Nc1ccc(C(=O)Nc2ccc(Cl)cc2)cc1`, for which the inhibition in series [3] worked out at 53%. Take `O=C(Nc1ccc(C(F)(F)F)cc1)c1ccc([N+](=O)[O-])cc1`: the inhibition in [3] was 0%.

Compound `O=C(Nc1ccc(C(F)(F)F)cc1)c1cccc([N+](=O)[O-])c1` displayed an inhibition in series [3] of 13%. Turning to `COc1ccc(NC(=O)c2ccc(Cl)cc2)cc1`, the inhibition in series [3] was determined as 35%. As to `Nc1ccccc1C(=O)Nc1ccc(C(F)(F)F)cc1`, the IC50 in series [1] is 16 µM; in series [2] it was greater than 100 µM. In [3], this compound gave an inhibition of 68%. As to `Nc1ccccc1C(=O)Nc1cccc(C(F)(F)F)c1`, the IC50 was 10 µM in series [1] and greater than 100 µM in series [2]. Moreover, the inhibition in [3] turned out to be 90%.
